Consider eleven molecules from patent US12516038B2, “Inhibitors of antigen presentation by HLA-DR” (Janssen Pharmaceutica NV, priority 2020, dated 2026).

Experiment [1] has as its system human peripheral blood CD4+ helper T cells. Briefly: Pan-CD4+ T cell activation (off-target assay). The experiment is classed as cell-based. The settings on record: anti-CD3/anti-CD28 stimulation, IL-2 production by ELISA. The source says:
The counter-screening was made through an HLA-DR-independent assay (Pan-CD4+ T cell activation assay), i.e., TCR-stimulated pan-T cell activation assay, and consists of activating T cell directly with agonistic antibody targeting the T cell receptor. The lack of inhibition in the counter-screening assay reflects that the inhibition of T cell activation in the HLA-DR4 restricted peptide-specific T cell based assay with the small molecule inhibitors is due to impaired antigen presentation on HLA-DR to the T cell and not due to a direct inhibition of the T cell function by an off-target mechanism (i.e., independently of targeting HLA-DR).
Pan-CD4+ T Cell Activation
Compounds were tested using a pan-T cell activation assay. In this assay, anti-human CD3 antibody (BD Pharmingen #55336) pre-coated at 1 μg/mL to a 96-well assay plate and 1 μg/ml soluble anti-human CD28 (EBioscience #16-0289-85) antibody were used for activating human peripheral blood CD4+ helper T cells (no HLA-DR-expressing APC were present in this assay format), in the presence of compounds (or vehicle control) for 24 hrs. IL-2 production was measured in the culture supernatant by ELISA (Human IL-2 Duo Set ELISA #DY202 from R&D Systems).

The test system of experiment [2] is HLA-DR4 restricted mouse T cell hybridoma line (DR4.CII.36.8) with HLA-DRB1*04:01-expressing Boleth cells. The experiment in a line: HLA-DR4-restricted peptide-specific T cell-based assay (hybridoma assay). The conditions noted are these: 6 h, inhibition of IL-2 production, CII259-273 peptide presented by Boleth cells. The gist of the method: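 IC50 values derive from 4-parameter logistic fits of IL-2 AlphaLISA signal over 8-point duplicate titrations. Compound and HLA-DRB1*04:01 Boleth APCs were preincubated 1 h, 37° C., before adding CII259-273-restricted DR4.CII.36.8 hybridoma cells with peptide for 6 h at 37° C., in DMEM/1% FCS.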

The target in a further experiment is HLA-DRB1*0401 (Homo sapiens (Human), UniProt P01903+P01911, A100K/A169T/DEL228-266/F76Y/I96L/K127E/L162R/M171V/N62H/P40V/Q125Y/R42H/S133A/S149N/S66Y/V115G/V209L/W38E). Briefly: HLA-DR4 HTRF assay. It counts as binding. The settings on record: inhibition of loading of Alexa Fluor 647-labeled Cit-CII peptide onto HLA-DR4 (CLIP cleaved). The gist of the method:
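HLA-DRB1*04:01 construct (α/β fused to human Fc, CLIP pre-cleaved by HRV3C overnight at 4° C) at 3 nM was preincubated 45 min with compound and 1 nM anti-Fc-Tb donor, then 40 nM Alexa647-Cit-CII1236-1249 peptide added. After 90 min at 37° C, the 665/620 nm HTRF ratio gave % inhibition; IC50 by nonlinear regression.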

Structures are written as SMILES.

For `Cc1c(O[C@H](c2ccncc2)c2ccc(C(N)=O)cc2OC(C)C)ccc2c1OCCC2=O` (single isomer, unassigned) [Example 84a, (*R)-3-isopropoxy-4-(((8-methyl-4-oxochroman-7-yl)oxy)(pyridin-4-yl)methyl)benzamide], the IC50 in experiment [1] (Homo sapiens, T-cell, 24 h) is 470 nM; in experiment [2] (Mus musculus, T-cell), 790 nM; on HLA-DRB1*0401, 1200 nM.

As for `NC(=O)c1ccc([C@@H](Oc2ccc3c(c2)OCCC3=O)c2ccnc(-c3ccccc3)c2)cc1` (single isomer, unassigned) [Example 26a, (*R)-4-(((4-oxochroman-7-yl)oxy)(2-phenylpyridin-4-yl)methyl)benzamide], the IC50 in experiment [1] (Homo sapiens, T-cell, 24 h) was above 15000 nM; in experiment [2] (Mus musculus, T-cell), 1100 nM; on HLA-DRB1*0401, 64000 nM.

As for `CC1(C)COc2cc(O[C@@H](c3ccncc3)c3ccc(C(N)=O)cc3)ccc2C1=O` (single isomer, unassigned) [Example 56a, (*R)-4-(((3,3-dimethyl-4-oxochroman-7-yl)oxy)(pyridin-4-yl)methyl)benzamide], the IC50 worked out at 4600 nM in experiment [1] (Homo sapiens, T-cell, 24 h); 1700 nM in experiment [2] (Mus musculus, T-cell); 1400 nM against HLA-DRB1*0401.

`NC(=O)c1cccc([C@@H](Oc2ccc3c(c2)OCCC3=O)c2ccncc2)c1` (single isomer, unassigned) [Example 9a, (*R)-3-(((4-oxochroman-7-yl)oxy)(pyridin-4-yl)methyl)benzamide]: the IC50 in experiment [1] (Homo sapiens, T-cell, 24 h) worked out at 4700 nM; in experiment [2] (Mus musculus, T-cell) it was 6300 nM; against HLA-DRB1*0401, 920 nM.

With `NC(=O)c1ccc([C@H](Oc2ccc3c(c2)OCCC3=O)c2ccnc(-c3ccccc3)c2)cc1` (single isomer, unassigned) [Example 26b, (*S)-4-(((4-oxochroman-7-yl)oxy)(2-phenylpyridin-4-yl)methyl)benzamide], the IC50 was found to be 15000 nM in experiment [1] (Homo sapiens, T-cell, 24 h); 1600 nM in experiment [2] (Mus musculus, T-cell); 88000 nM against HLA-DRB1*0401.

In the case of `Cc1c(O[C@H](c2ccc(C(N)=O)cc2)c2ccc(C(=O)O)cc2)ccc2c1OCCC2=O` (single isomer, unassigned) [Example 71a, (*R)-4-((4-carbamoylphenyl)((8-methyl-4-oxochroman-7-yl)oxy)methyl)benzoic acid], the IC50 in experiment [1] (Homo sapiens, T-cell, 24 h) was above 15000 nM; in experiment [2] (Mus musculus, T-cell), 1500 nM; on HLA-DRB1*0401, 1600 nM.

In the case of `COc1ccc(C(Oc2ccc3c(c2)OCCC3=O)c2ccncc2)cc1` (racemic) [Example 12, (R,S)-7-((4-Methoxyphenyl)(pyridin-4-yl)methoxy)chroman-4-one], the IC50 in experiment [1] (Homo sapiens, T-cell, 24 h) is above 15000 nM; in experiment [2] (Mus musculus, T-cell), 1600 nM; against HLA-DRB1*0401, 1200 nM.

For the molecule `NC(=O)c1ccc([C@@H](Oc2ccc3c(c2)OCCC3=O)c2cccnc2)cc1` (single isomer, unassigned) [Example 31b, (*S)-4-(((4-oxochroman-7-yl)oxy)(pyridin-3-yl)methyl)benzamide], the IC50 in experiment [1] (24 hrs) was above 15000 nM; in experiment [2], 3500 nM; against HLA-DRB1*0401, 640 nM.

As for `CC(C)c1cc2c(cc1O[C@@H](c1ccncc1)c1ccc(C(N)=O)cc1)OCCC2=O` (single isomer, unassigned) [Example 76a, (*R)-4-(((6-isopropyl-4-oxochroman-7-yl)oxy)(pyridin-4-yl)methyl)benzamide], the IC50 in experiment [1] (Homo sapiens, T-cell, 24 h) is 2200 nM; in experiment [2] (Mus musculus, T-cell), 320 nM; against HLA-DRB1*0401, 650 nM.

Take `Cc1c(O[C@H](c2ccncc2)c2ccc(C(N)=O)cc2OCC(C)C)ccc2c1OCCC2=O` (single isomer, unassigned) [Example 85a, (*R)-3-isobutoxy-4-(((8-methyl-4-oxochroman-7-yl)oxy)(pyridin-4-yl)methyl)benzamide]: the IC50 was 3700 nM in experiment [1] (Homo sapiens, T-cell, 24 h); 240 nM in experiment [2] (Mus musculus, T-cell); 810 nM at HLA-DRB1*0401.

Consider `O=C1CCOc2cc(OC(c3ccncc3)c3ccc(F)cc3)ccc21` (racemic) [Example 3, (R,S)-7-((4-Fluorophenyl)(pyridin-4-yl)methoxy)chroman-4-one], for which the IC50 was above 15000 nM in experiment [1] (Homo sapiens, T-cell, 24 h); 3700 nM in experiment [2] (Mus musculus, T-cell); 990 nM against HLA-DRB1*0401.
